Literature values in paper PMC8541945 (Investigational New Drugs, 2021).

Columns and labels:
[1] = tested on: patients; design: method as in PMID 28580882, PMID 28968163
[2] = tested on: heavily pretreated patients, HR + /HER2- advanced BC; design: method as in PMID 28533223; details: abemaciclib alone, 132 heavily pretreated patients
[3] = tested on: brain metastases secondary to HR + /HER2- metastatic BC; design: method as in earlier work
[4] = tested on: patients; details: single agent, phase 1 trials
[5] = following multiple doses, 600-mg dose group
[6] = tested on: patients in the ribociclib group

Structure (SMILES) | Grade 3/4 neutropenia [1] | CBR [2] | Confirmed ORR [2] | Median OS [2] | Median PFS [2] | Confirmed objective intracranial response [3] | Intracranial clinical benefit rate (CR + PR + SD persisting for ≥ 6 months) [3] | Patients with a decrease in the sum of intracranial target lesions [3] | Patients who experienced SD [4] | Cmax, geometric mean [range] [5] | Patients with dose interruptions or dose reductions due to QTcF increase ([6]; 13 patients) | Patients with increase of more than 60 ms from baseline in the QTcF interval ([6]; 32 of 335 patients in the ribociclib group)
CCN1CCN(Cc2ccc(Nc3ncc(F)c(-c4cc(F)c5nc(C)n(C(C)C)c5c4)n3)nc2)CC1 [abemaciclib] | 21.1% | 42.4% | 19.7% | 17.7 months | 6.0 months | 6% | 25% | 38% | – | – | – | –
CC(=O)c1c(C)c2cnc(Nc3ccc(N4CCNCC4)cn3)nc2n(C2CCCC2)c1=O [palbociclib] | – | – | – | – | – | – | – | – | approximately 30% | – | – | –
CN(C)C(=O)c1cc2cnc(Nc3ccc(N4CCNCC4)cn3)nc2n1C1CCCC1 [ribociclib] | – | – | – | – | – | – | – | – | approximately 30% | 1940 [range, 859–5860] ng/ml | 4% | 10%
